Test results as given in PubChem BioAssay AID1259411 (Chemical Carcinogenesis Research Information System (CCRIS), 2018).
Activity calls are given as the source filed them. The rule behind the calls is not given here.

System: rodent carcinogenicity bioassays, tumor incidence
Assay: CCRIS carcinogenicity studies
Procedure, shortened: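 NCI-built, expert-reviewed records of carcinogenicity and related test outcomes (mutagenicity, tumor promotion/inhibition) compiled from published and report sources, historical span 1985-2011, not updated.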

## CN(CCC#N)N=O
Species: RAT, Strain/Sex: F344/FEMALE, Route: SUBCUTANEOUS, Dose: 0, 0.019 MMOL 3/WK FOR 20 WK (STUDY DURATION: 24 WK), Tumor Site: Type of Lesion: ESOPHAGUS: PAPILLOMA, NASAL CAVITY: PAPILLOMA, TONGUE: PAPILLOMA OR CARCINOMA, Tumor Site: Type of Lesion: ESOPHAGUS: PAPILLOMA, NASAL CAVITY: PAPILLOMA, TONGUE: PAPILLOMA OR CARCINOMA
  carcinogen call: active; positive
Species: RAT, Strain/Sex: F344/MALE, FEMALE, Route: SUBCUTANEOUS, Dose: 0, 2.13 MG IN 0.3 ML SALINE 3/WK FOR 20 WK (TOTAL DOSE 127.8 MG) (STUDY DURATION: 24 WK), Tumor Site: Type of Lesion: ESOPHAGUS: SQUAMOUS CELL PAPILLOMA, SQUAMOUS CELL CARCINOMA, TONGUE: PAPILLOMA, CARCINOMA, NASAL CAVITY: PAPILLOMA, ESTH, Tumor Site: Type of Lesion: ESOPHAGUS: SQUAMOUS CELL PAPILLOMA, SQUAMOUS CELL CARCINOMA, TONGUE: PAPILLOMA, CARCINOMA, NASAL CAVITY: PAPILLOMA, ESTH
  carcinogen call: active; positive
Species: RAT, Strain/Sex: F344/MALE,FEMALE, Route: SUBCUTANEOUS, Dose: 2.13 MG 3/WK FOR 20 WK (TOTAL DOSE 129 MG), Tumor Site: Type of Lesion: ESOPHAGUS: PAPILLOMA, CARCINOMA, NASAL CAVITY: PAPILLOMA, TONGUE: PAPILLOMA, CARCINOMA, Tumor Site: Type of Lesion: ESOPHAGUS: PAPILLOMA, CARCINOMA, NASAL CAVITY: PAPILLOMA, TONGUE: PAPILLOMA, CARCINOMA
  carcinogen call: active; positive
Species: RAT, Strain/Sex: F344/MALE, Route: MUCOUS MEMBRANE, Dose: 0, 0.3 ML OF A 15 MMOL WATER SOLUTION 1/D 3 D/WK FOR 1 WK THEN 1/D 5 D/WK FOR WK 2-4 THEN 2/D 5 D/WK FOR WK 5-6 (STUDY D, Tumor Site: Type of Lesion: NASAL CAVITY: CARCINOMA, PAPILLOMA, ADENOMA, LUNG: ADENOCARCINOMA, ADENOMA, LIVER: CARCINOMA, ADENOMA, ESOPHAGUS: PAPILL, Tumor Site: Type of Lesion: NASAL CAVITY: CARCINOMA, PAPILLOMA, ADENOMA, LUNG: ADENOCARCINOMA, ADENOMA, LIVER: CARCINOMA, ADENOMA, ESOPHAGUS: PAPILL
  carcinogen call: active; positive
Species: RAT, Strain/Sex: F344/MALE, Route: SUBCUTANEOUS, Dose: 0, 0.019 MMOL 3/WK FOR 20 WK (STUDY DURATION: 24 WK), Tumor Site: Type of Lesion: ESOPHAGUS: PAPILLOMA, NASAL CAVITY: PAPILLOMA, TONGUE: PAPILLOMA OR CARCINOMA, Tumor Site: Type of Lesion: ESOPHAGUS: PAPILLOMA, NASAL CAVITY: PAPILLOMA, TONGUE: PAPILLOMA OR CARCINOMA
  carcinogen call: active; positive

## O=S(O)S(=O)(=O)O
Species: RAT, Strain/Sex: WISTAR/FEMALE, Route: ORAL, Dose: 0, 0.125, 0.25, 0.5, 1, 2% IN DIET FOR 104 WK (STUDY DURATION: 104 WK), Dose: 0, 0.125, 0.25, 0.5, 1, 2% IN DIET FOR 104 WK (STUDY DURATION: 104 WK)
  carcinogen call: inactive; negative
Species: RAT, Strain/Sex: WISTAR/FEMALE, Route: ORAL, Dose: 0, 0.125, 0.25, 0.5, 1, 2% IN DIET FOR 104 WK TO OFFSPRING OF RATS ADMINISTERED THE SAME DOSES IN THEIR DIETS (STUDY DUR, Dose: 0, 0.125, 0.25, 0.5, 1, 2% IN DIET FOR 104 WK TO OFFSPRING OF RATS ADMINISTERED THE SAME DOSES IN THEIR DIETS (STUDY DUR
  carcinogen call: inactive; negative
Species: RAT, Strain/Sex: WISTAR/MALE, Route: ORAL, Dose: 0, 0.125, 0.25, 0.5, 1, 2% IN DIET FOR 104 WK (STUDY DURATION: 104 WK), Dose: 0, 0.125, 0.25, 0.5, 1, 2% IN DIET FOR 104 WK (STUDY DURATION: 104 WK)
  carcinogen call: inactive; negative
Species: RAT, Strain/Sex: WISTAR/MALE, Route: ORAL, Dose: 0, 0.125, 0.25, 0.5, 1, 2% IN DIET FOR 104 WK TO OFFSPRING OF RATS ADMINISTERED THE SAME DOSES IN THEIR DIETS (STUDY DUR, Dose: 0, 0.125, 0.25, 0.5, 1, 2% IN DIET FOR 104 WK TO OFFSPRING OF RATS ADMINISTERED THE SAME DOSES IN THEIR DIETS (STUDY DUR
  carcinogen call: inactive; negative

## ClC1=C(Cl)C(Cl)(Cl)C(Cl)=C1Cl
Species: MOUSE, Strain/Sex: B6C3F1/FEMALE, Route: INHALATION, Dose: 0, 0.01, 0.05, 0.2 PPM IN AIR 6 HR/D 5 D/WK FOR 104 WK (STUDY DURATION: 104 WK), Dose: 0, 0.01, 0.05, 0.2 PPM IN AIR 6 HR/D 5 D/WK FOR 104 WK (STUDY DURATION: 104 WK)
  carcinogen call: inactive; negative
Species: MOUSE, Strain/Sex: B6C3F1/MALE, Route: INHALATION, Dose: 0, 0.01, 0.05, 0.2 PPM IN AIR 6 HR/D 5 D/WK FOR 104 WK (STUDY DURATION: 104 WK), Dose: 0, 0.01, 0.05, 0.2 PPM IN AIR 6 HR/D 5 D/WK FOR 104 WK (STUDY DURATION: 104 WK)
  carcinogen call: inactive; negative
Species: RAT, Strain/Sex: F344/FEMALE, Route: INHALATION, Dose: 0, 0.01, 0.05, 0.2 PPM IN AIR 6 HR/D 5 D/WK FOR 104 WK (STUDY DURATION: 104 WK), Dose: 0, 0.01, 0.05, 0.2 PPM IN AIR 6 HR/D 5 D/WK FOR 104 WK (STUDY DURATION: 104 WK)
  carcinogen call: inactive; negative
Species: RAT, Strain/Sex: F344/MALE, Route: INHALATION, Dose: 0, 0.01, 0.05, 0.2 PPM IN AIR 6 HR/D 5 D/WK FOR 104 WK (STUDY DURATION: 104 WK), Dose: 0, 0.01, 0.05, 0.2 PPM IN AIR 6 HR/D 5 D/WK FOR 104 WK (STUDY DURATION: 104 WK)
  carcinogen call: inactive; negative

## O=[N+]([O-])c1ccc2c(c1)-c1ccc([N+](=O)[O-])c3cccc-2c13
Species: RAT, Strain/Sex: F344/DUCRJ/MALE, Route: PULMONARY IMPLANT, Dose: 0, 0.05, 0.1, 0.2 MG AS A SUSPENSION IN EQUAL VOL OF BEESWAX AND TRICAPRYLIN IMPLANTED IN LEFT LUNG (STUDY DURATION: 70, Dose: 0, 0.05, 0.1, 0.2 MG AS A SUSPENSION IN EQUAL VOL OF BEESWAX AND TRICAPRYLIN IMPLANTED IN LEFT LUNG (STUDY DURATION: 70, Tumor Site: Type of Lesion: LUNG: TUMOR
  carcinogen call: active; positive
Species: RAT, Strain/Sex: F344/MALE, Route: LUNG IMPLANT, Dose: 0, 50, 100, 200 UG IN BEESWAX/TRICAPRYLIN INTO LOWER LEFT LUNG ONCE (STUDY DURATION: 100 WK), Dose: 0, 50, 100, 200 UG IN BEESWAX/TRICAPRYLIN INTO LOWER LEFT LUNG ONCE (STUDY DURATION: 100 WK), Tumor Site: Type of Lesion: LUNG: SQUAMOUS CELL CARCINOMA, ADENOSQUAMOUS CARCINOMA, TUMOR
  carcinogen call: active; positive
Species: RAT, Strain/Sex: F344/MALE, Route: PULMONARY IMPLANT, Dose: 0, 50, 100, 200 UG IN 50 µL BEESWAX/TRICAPRYLIN IMPLANTED FOR UP TO 100 WK (STUDY DURATION: 100 WK), Dose: 0, 50, 100, 200 UG IN 50 µL BEESWAX/TRICAPRYLIN IMPLANTED FOR UP TO 100 WK (STUDY DURATION: 100 WK), Tumor Site: Type of Lesion: LUNG: TUMOR
  carcinogen call: active; positive

## COC(=O)Nc1nc2ccccc2[nH]1
Species: Mouse, Strain/Sex: CD-1/Female (80/sex/dose), Route: Oral, Dose: 0, 500, 1500, 7500 ppm in feed for 2 yr, Dose: 0, 500, 1500, 7500 ppm in feed for 2 yr, Tumor Site: Type of Lesion: Liver: Hepatocellular adenoma (0/68, 5/62, 5/66, 3/71), Hepatocellular carcinoma (2/68, 4/62, 15/66, 12/71), Combined (2, Tumor Site: Type of Lesion: Liver: Hepatocellular adenoma (0/68, 5/62, 5/66, 3/71), Hepatocellular carcinoma (2/68, 4/62, 15/66, 12/71), Combined (2
  carcinogen call: active; positive: purity 99.3%
Species: Mouse, Strain/Sex: CD-1/Male (80/sex/dose); Route: Oral; Dose: 0; 500; 1500; 7500 ppm in feed for 2 yr except for highest dose where animals terminated at week 73 with 29% survival); Dose: 0; 500; 1500; 7500 ppm in feed for 2 yr except for highest dose where animals terminated at week 73 with 29% survival)
  carcinogen call: inactive; negative: purity 99.3%
